Assay results as given in ChEMBL document CHEMBL1154879, “Discovery of (thienopyrimidin-2-yl)aminopyrimidines as potent, selective, and orally available pan-PI3-kinase and dual pan-PI3-kinase/mTOR inhibitors for the treatment of cancer” (J Med Chem, 2010).
pIC50: −log10 of the molar value. The source made the active and inactive calls. The calls are words filed in the database; no cut-off is given here.

Experiments:
[1] = molecular target: Phosphatidylinositol 4-phosphate 3-kinase C2 domain-containing subunit beta (Homo sapiens) (UniProt O00750); test: Inhibition of PIK3C2beta at 1 uM
[2] = molecular target: Phosphatidylinositol 3-kinase catalytic subunit type 3 (Homo sapiens) (UniProt Q8NEB9); test: Inhibition of VPS34 at 1 uM
Sequence of Phosphatidylinositol 3-kinase catalytic subunit type 3 (Homo sapiens) (Q8NEB9 whole entry): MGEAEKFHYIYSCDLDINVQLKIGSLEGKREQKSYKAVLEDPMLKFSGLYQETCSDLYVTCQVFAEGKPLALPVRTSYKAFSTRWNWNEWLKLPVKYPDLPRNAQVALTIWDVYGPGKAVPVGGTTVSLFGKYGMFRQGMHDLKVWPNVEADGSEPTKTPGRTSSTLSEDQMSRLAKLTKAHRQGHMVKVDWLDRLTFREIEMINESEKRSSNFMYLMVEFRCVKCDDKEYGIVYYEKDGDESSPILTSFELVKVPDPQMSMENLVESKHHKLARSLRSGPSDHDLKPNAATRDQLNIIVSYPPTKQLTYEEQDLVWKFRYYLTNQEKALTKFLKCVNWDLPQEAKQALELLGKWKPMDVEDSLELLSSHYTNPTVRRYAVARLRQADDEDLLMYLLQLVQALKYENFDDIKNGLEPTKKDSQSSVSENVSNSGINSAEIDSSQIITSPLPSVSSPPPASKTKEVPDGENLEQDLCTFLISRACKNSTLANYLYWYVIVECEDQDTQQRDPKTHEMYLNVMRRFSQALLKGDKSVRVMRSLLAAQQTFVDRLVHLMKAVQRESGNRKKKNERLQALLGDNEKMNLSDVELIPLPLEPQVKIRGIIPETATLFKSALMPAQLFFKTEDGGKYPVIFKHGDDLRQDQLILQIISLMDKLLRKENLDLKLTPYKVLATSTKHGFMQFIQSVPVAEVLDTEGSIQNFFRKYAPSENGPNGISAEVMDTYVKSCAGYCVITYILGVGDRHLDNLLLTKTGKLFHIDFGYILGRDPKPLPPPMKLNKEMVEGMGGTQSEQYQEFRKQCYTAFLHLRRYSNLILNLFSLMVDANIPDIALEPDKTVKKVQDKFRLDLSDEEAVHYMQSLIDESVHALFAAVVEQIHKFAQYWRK

[3] = molecular target: Phosphatidylinositol 4-kinase beta (Homo sapiens) (UniProt Q9UBF8); test: Inhibition of PI4Kbeta at 1 uM
Sequence of Phosphatidylinositol 4-kinase beta (Homo sapiens) (Q9UBF8 2-816 limits assumed): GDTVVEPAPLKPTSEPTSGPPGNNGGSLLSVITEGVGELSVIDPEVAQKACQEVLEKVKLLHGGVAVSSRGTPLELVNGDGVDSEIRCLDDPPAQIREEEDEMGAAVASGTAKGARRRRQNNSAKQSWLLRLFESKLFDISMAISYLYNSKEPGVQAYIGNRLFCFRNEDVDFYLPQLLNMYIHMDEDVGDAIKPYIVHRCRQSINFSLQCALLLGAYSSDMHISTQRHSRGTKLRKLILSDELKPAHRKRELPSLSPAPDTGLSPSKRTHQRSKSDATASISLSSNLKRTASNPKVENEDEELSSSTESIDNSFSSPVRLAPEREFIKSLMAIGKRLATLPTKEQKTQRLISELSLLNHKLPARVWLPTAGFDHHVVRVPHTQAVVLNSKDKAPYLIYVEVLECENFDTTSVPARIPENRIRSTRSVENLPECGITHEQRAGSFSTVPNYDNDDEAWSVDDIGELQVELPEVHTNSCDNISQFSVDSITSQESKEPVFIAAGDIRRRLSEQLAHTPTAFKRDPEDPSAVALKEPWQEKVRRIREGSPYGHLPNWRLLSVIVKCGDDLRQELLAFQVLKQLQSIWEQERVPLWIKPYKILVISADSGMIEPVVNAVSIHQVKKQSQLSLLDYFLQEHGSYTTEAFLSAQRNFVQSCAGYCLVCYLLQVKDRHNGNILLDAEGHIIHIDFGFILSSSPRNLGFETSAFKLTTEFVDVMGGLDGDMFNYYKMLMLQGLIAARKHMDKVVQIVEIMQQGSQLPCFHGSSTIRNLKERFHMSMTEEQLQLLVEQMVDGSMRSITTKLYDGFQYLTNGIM

Mus musculus [4] = test: Inhibition of PI3K/Akt/mTOR pathway signaling in PI3Kalpha mutant expressing human MCF7.1 cells xenografted nu/nu mouse assessed as inhibition of Akt Ser473 phosphorylation at 6.25 mg/kg, po qd for 21 days measured 1 hr after last administered dose on day 21 by electrochemiluminescence assay; format: functional
Mus musculus [5] = test: Inhibition of PI3K/Akt/mTOR pathway signaling in PI3Kalpha mutant expressing human MCF7.1 cells xenografted nu/nu mouse assessed as inhibition of Akt Ser473 phosphorylation at 12.5 mg/kg, po qd for 21 days measured 4 hrs after last administered dose on day 21 by electrochemiluminescence assay; format: functional
Mus musculus [6] = test: Inhibition of PI3K/Akt/mTOR pathway signaling in PI3Kalpha mutant expressing human MCF7.1 cells xenografted nu/nu mouse assessed as inhibition of Akt Ser473 phosphorylation at 25 mg/kg, po qd for 21 days measured 4 hrs after last administered dose on day 21 by electrochemiluminescence assay; format: functional
Mus musculus [7] = test: Inhibition of PI3K/Akt/mTOR pathway signaling in PI3Kalpha mutant expressing human MCF7.1 cells xenografted nu/nu mouse assessed as inhibition of Pras40 Thr246 phosphorylation at 6.25 mg/kg, po qd for 21 days measured 1 hr after last administered dose on day 21 by ELISA; format: functional
Mus musculus [8] = test: Inhibition of PI3K/Akt/mTOR pathway signaling in PI3Kalpha mutant expressing human MCF7.1 cells xenografted nu/nu mouse assessed as inhibition of Pras40 Thr246 phosphorylation at 6.25 mg/kg, po qd for 21 days measured 4 hrs after last administered dose on day 21 by ELISA; format: functional
Mus musculus [9] = test: Inhibition of PI3K/Akt/mTOR pathway signaling in PI3Kalpha mutant expressing human MCF7.1 cells xenografted nu/nu mouse assessed as inhibition of Pras40 Thr246 phosphorylation at 12.5 mg/kg, po qd for 21 days measured 4 hrs after last administered dose on day 21 by ELISA; format: functional
Mus musculus [10] = test: Inhibition of PI3K/Akt/mTOR pathway signaling in PI3Kalpha mutant expressing human MCF7.1 cells xenografted nu/nu mouse assessed as inhibition of Pras40 Thr246 phosphorylation at 25 mg/kg, po qd for 21 days measured 1 hr after last administered dose on day 21 by ELISA; format: functional
[11] = Antitumor activity against human MCF7.1 cells expressing PI3Kalpha mutant xenografted in nu/nu mouse assessed as inhibition of tumor growth at 50 mg/kg, po qd for 21 days; format: functional; settings: MCF7.1, 504 h, read-out: TGI
[12] = Antitumor activity against human MCF7.1 cells expressing PI3Kalpha mutant xenografted in nu/nu mouse assessed as inhibition of tumor growth at 6.25 mg/kg, po qd for 21 days; format: functional; settings: MCF7.1, 504 h, read-out: TGI
Mus musculus [13] = test: Toxicity in human MCF7.1 cells expressing PI3Kalpha mutant xenografted nu/nu mouse assessed as body weight loss at 12.5 mg/kg, po qd for 21 days; format: organism-based; design: dose 12.5 mg/kg, route oral; settings: in vivo, 504 h
Mus musculus [14] = test: Toxicity in human MCF7.1 cells expressing PI3Kalpha mutant xenografted nu/nu mouse assessed as body weight loss at 25 mg/kg, po qd for 21 days; format: organism-based; design: dose 25 mg/kg, route oral; settings: in vivo, 504 h
Mus musculus [15] = test: Toxicity in human MCF7.1 cells expressing PI3Kalpha mutant xenografted nu/nu mouse assessed as body weight loss at 50 mg/kg, po qd for 21 days; format: organism-based; design: dose 50 mg/kg, route oral; settings: in vivo, 504 h
Mus musculus [16] = test: Inhibition of PI3K/Akt/mTOR pathway signaling in PI3Kalpha mutant expressing human MCF7.1 cells xenografted nu/nu mouse assessed as inhibition of S6RP Ser235/236 phosphorylation at 6.25 mg/kg, po qd for 21 days measured 1 hr after last administered dose on day 21 by electrochemiluminescence assay; format: functional
Mus musculus [17] = test: Inhibition of PI3K/Akt/mTOR pathway signaling in PI3Kalpha mutant expressing human MCF7.1 cells xenografted nu/nu mouse assessed as inhibition of S6RP Ser235/236 phosphorylation at 25 mg/kg, po qd for 21 days measured 4 hrs after last administered dose on day 21 by electrochemiluminescence assay; format: functional
[18] = Half life in nu/nu mouse at 5 mg/kg, po; format: ADME, organism-based; design: dose 5 mg/kg, route oral; settings: in vivo
Aurora kinase A = molecular target: T1, Aurora kinase A (Homo sapiens, UniProt O14965); test: Inhibition of Aurora A kinase
T1 sequence (O14965 whole entry): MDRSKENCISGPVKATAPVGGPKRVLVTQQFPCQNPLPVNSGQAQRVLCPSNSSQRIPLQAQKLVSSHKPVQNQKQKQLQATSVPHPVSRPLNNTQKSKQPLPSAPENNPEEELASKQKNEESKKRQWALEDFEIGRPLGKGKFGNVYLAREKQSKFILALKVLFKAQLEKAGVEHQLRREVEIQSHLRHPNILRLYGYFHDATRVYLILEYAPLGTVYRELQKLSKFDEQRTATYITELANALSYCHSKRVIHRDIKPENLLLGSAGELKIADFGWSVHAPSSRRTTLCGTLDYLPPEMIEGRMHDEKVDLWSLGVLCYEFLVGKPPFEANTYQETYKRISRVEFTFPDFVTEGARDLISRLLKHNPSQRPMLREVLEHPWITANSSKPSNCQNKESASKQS

[19] = molecular target: Mitogen-activated protein kinase kinase kinase 9 (Homo sapiens, UniProt P80192); test: Inhibition of MLK1
Sequence of Mitogen-activated protein kinase kinase kinase 9 (P80192 whole entry): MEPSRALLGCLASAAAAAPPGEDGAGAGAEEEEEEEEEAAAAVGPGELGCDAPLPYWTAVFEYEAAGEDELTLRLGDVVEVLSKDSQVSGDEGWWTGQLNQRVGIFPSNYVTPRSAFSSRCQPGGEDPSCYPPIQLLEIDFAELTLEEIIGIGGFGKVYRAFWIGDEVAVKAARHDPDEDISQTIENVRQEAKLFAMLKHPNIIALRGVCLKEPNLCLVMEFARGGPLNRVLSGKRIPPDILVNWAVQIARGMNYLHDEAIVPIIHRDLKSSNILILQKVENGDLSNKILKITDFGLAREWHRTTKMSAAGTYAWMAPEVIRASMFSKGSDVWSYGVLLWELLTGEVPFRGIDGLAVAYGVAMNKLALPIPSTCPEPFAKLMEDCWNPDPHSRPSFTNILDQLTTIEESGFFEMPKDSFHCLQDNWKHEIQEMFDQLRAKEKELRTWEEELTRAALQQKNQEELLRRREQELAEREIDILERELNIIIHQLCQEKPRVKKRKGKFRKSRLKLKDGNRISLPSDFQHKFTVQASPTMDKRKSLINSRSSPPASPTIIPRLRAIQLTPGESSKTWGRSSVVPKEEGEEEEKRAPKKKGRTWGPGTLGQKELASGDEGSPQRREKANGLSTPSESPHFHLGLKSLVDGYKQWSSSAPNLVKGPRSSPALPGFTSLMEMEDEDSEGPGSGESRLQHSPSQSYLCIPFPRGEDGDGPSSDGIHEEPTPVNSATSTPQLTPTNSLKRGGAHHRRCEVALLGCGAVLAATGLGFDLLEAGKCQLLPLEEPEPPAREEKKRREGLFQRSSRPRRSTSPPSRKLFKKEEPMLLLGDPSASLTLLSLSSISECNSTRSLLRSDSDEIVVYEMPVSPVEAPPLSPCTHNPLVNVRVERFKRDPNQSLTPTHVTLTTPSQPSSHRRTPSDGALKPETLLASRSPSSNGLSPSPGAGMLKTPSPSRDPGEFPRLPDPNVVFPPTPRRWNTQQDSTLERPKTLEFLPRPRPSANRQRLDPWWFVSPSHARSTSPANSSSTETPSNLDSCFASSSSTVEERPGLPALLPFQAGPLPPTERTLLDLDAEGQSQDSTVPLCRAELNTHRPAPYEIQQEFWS

[20] = molecular target: Tyrosine-protein kinase SYK (Homo sapiens, UniProt P43405); test: Inhibition of SYK
[21] = molecular target: Phosphatidylinositol 4,5-bisphosphate 3-kinase catalytic subunit beta isoform (Homo sapiens, UniProt P42338); test: Inhibition of recombinant PI3Kbeta assessed as PIP3 product formation by fluorescence polarization assay
Sequence of Phosphatidylinositol 4,5-bisphosphate 3-kinase catalytic subunit beta isoform (P42338 whole entry, canonical isoform): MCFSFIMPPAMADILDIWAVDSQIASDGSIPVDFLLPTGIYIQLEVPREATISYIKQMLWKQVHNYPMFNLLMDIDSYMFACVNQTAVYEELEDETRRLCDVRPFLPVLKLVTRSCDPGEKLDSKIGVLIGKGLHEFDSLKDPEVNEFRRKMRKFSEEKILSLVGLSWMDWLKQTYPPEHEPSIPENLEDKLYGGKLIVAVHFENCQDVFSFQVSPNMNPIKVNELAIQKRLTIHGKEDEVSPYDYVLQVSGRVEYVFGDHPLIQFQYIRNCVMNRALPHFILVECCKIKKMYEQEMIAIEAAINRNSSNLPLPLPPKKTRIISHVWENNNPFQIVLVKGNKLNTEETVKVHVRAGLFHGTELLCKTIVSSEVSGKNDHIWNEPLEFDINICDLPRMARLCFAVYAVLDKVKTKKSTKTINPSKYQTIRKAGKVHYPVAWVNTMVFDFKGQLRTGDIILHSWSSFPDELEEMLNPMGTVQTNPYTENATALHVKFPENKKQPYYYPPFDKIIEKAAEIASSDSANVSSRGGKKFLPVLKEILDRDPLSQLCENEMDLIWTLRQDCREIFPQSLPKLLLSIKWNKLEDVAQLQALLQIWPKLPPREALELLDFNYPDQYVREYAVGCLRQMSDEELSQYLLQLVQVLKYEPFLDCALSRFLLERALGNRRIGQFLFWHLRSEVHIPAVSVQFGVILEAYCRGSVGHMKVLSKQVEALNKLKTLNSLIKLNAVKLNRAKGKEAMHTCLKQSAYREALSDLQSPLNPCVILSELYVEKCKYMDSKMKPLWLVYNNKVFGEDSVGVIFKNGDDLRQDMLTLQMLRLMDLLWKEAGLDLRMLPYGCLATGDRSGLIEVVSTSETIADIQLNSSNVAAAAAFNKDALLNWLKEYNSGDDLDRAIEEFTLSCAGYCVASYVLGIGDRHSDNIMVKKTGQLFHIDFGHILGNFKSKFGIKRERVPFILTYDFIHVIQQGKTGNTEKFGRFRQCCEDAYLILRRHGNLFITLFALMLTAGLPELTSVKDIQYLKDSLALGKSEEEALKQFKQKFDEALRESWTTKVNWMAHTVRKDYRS

PC-3 = test: Antiproliferative activity against human PC3 cells deficient in PTEN in after 3 to 4 days; format: functional, cell-based
[22] = Volume of distribution at steady state in nu/nu mouse at 1 mg/kg, iv; format: ADME, organism-based; design: dose 1 mg/kg, route intravenous; settings: in vivo, read-out: Vdss
[23] = AUC in nu/nu mouse at 5 mg/kg, po; format: ADME, organism-based; design: dose 5 mg/kg, route oral; settings: plasma
[24] = Oral bioavailability in nu/nu mouse at 5 mg/kg, po; format: ADME, organism-based; settings: in vivo
[25] = Protein binding in mouse plasma; format: ADME, cell-free; settings: read-out: PPB (converted)
[26] = molecular target: Serine/threonine-protein kinase mTOR (Homo sapiens, UniProt P42345)
[27] = molecular target: Phosphatidylinositol 4,5-bisphosphate 3-kinase catalytic subunit alpha isoform (Homo sapiens, UniProt P42336)
Sequence of Phosphatidylinositol 4,5-bisphosphate 3-kinase catalytic subunit alpha isoform (P42336 whole entry, canonical isoform): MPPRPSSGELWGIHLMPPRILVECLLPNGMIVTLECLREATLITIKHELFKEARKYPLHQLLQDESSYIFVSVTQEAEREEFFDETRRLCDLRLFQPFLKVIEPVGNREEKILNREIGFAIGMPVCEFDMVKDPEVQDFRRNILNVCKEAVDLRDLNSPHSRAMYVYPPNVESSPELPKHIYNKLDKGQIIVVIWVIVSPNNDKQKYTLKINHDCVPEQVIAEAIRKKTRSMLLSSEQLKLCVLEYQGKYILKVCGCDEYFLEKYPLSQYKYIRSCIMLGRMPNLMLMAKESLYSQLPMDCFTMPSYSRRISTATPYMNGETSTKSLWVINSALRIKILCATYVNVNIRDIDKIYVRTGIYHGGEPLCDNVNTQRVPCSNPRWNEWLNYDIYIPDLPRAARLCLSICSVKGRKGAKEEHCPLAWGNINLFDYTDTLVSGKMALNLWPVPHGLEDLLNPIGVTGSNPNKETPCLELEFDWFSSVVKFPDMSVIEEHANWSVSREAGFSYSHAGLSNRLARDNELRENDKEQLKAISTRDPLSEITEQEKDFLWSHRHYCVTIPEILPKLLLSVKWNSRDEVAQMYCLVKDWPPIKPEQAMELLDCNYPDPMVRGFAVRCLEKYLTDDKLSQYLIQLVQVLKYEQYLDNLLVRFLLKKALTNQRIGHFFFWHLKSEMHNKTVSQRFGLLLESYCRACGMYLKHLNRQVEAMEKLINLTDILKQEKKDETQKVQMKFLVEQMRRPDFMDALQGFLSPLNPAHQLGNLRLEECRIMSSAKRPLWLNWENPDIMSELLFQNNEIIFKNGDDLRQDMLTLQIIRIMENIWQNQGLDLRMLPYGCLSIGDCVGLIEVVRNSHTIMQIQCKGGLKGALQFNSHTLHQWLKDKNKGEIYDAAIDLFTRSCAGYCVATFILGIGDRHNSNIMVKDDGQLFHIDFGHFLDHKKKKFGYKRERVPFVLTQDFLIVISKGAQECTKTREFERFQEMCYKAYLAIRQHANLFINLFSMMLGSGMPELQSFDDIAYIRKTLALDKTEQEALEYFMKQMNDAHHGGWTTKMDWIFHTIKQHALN

[28] = molecular target: Phosphatidylinositol 4,5-bisphosphate 3-kinase catalytic subunit gamma isoform (Homo sapiens, UniProt P48736)

SMILES: Cc1nc(N)ncc1-c1nc(N2CCOCC2)c2sc(C(C)(C)O)cc2n1
- inhibition [1]: 81%
- inhibition [2]: inactive
- inhibition [3]: inactive
- inhibition in vivo at 6.25 mg/kg (Mus musculus [4]): 81%
- inhibition in vivo at 12.5 mg/kg (Mus musculus [5]): 48%
- inhibition in vivo at 25 mg/kg (Mus musculus [6]): 66%
- inhibition in vivo at 6.25 mg/kg (Mus musculus [7]): 98%
- inhibition in vivo at 6.25 mg/kg (Mus musculus [8]): 54%
- inhibition in vivo at 12.5 mg/kg (Mus musculus [9]): 90%
- inhibition in vivo at 25 mg/kg (Mus musculus [10]): 97%
- inhibition in vivo at 50 mg/kg [11]: 88%
- inhibition in vivo at 6.25 mg/kg [12]: 28%
- Activity (Mus musculus [13]): Non-toxic
- Activity (Mus musculus [14]): Non-toxic
- Activity (Mus musculus [15]): Non-toxic
- inhibition in vivo at 6.25 mg/kg (Mus musculus [16]): 70%
- inhibition in vivo at 25 mg/kg (Mus musculus [17]): 63%
- half-life [18]: 4.6 h
- pIC50 (Aurora kinase A): < 6.00
- pIC50 [19]: < 6.00
- pIC50 [20]: < 6.00
- pIC50 [21]: 7.60
- pIC50 (PC-3): 6.31
- Vd [22]: 3 L/kg
- AUC [23]: 4.8 µM·h
- bioavailability [24]: 100%
- fraction unbound [25]: 0.27
- pIC50 [26]: 6.12
- pIC50 [27]: 8.46
- pIC50 [28]: 7.82
